Data published in patent US9096582B2, “Gamma secretase modulators” (MERCK SHARP & DOHME CORP, priority 2011, dated 2015).

Key:
γ-secretase = biological target: T1, γ-secretase (Homo sapiens, UniProt P49768); assay: Cell based γ-secretase assay (Aβ42 in conditioned media, MSD sandwich immunoassay); conditions: HEK 293 cells stably transfected with APPsw-lon; 5 hrs treatment; means of two independent experiments
T1 construct: Human embryonic kidney (HEK) 293 cells stably transfected with APPsw-lon in pcDNA3.1 vector; endogenous in cells; host or cells: HEK293 cells stably transfected with APPsw-lon (substrate only) in pcDNA3.1
Experimental: Cell Based γ-Secretase Assay (In Vitro Assay Method)
Human embryonic kidney (HEK) 293 cells stably transfected with APPsw-lon in pcDNA3.1 vector (Invitrogen) were treated with gamma secretase modulator (GSM) compounds (see Table below) for 5 hrs. Aβ in conditioned media was measured using MesoScale Discovery (MSD) technology based sandwich immunoassays. Aβ42 was measured using a pair of labeled antibodies TAG-G2-11 (described in Ida, N. et al., Journal of Biological Chemistry, 1996, 271, p. 22908-22914) and biotin-4G8 (Covance); γ-secretase activity is expressed as the concentration of compound producing 50% inhibition of the enzyme activity. The data presented below in the Table were the means of two independent experiments.

Rat CSF Aβ42 = assay: Cerebrospinal fluid (CSF) Aβ analysis (in vivo assay method); conditions: male CD rats; oral, 30 mg/kg in 20% hydroxypropyl β-cyclodextrin; CSF collected three hours after dosing
Experimental: Cerebrospinal Fluid (CSF) Aβ Analysis (In Vivo Assay Method)
Male CD rats (100 g; Charles River Laboratories) were orally administered a GSM compound (formulated in 20% hydroxypropyl β-cyclodextin; 5 ml/kg). Three hours later, the animals were euthanized with excess CO2, and CSF was immediately collected from the cisterna magna and frozen on dry ice; only clear samples were analyzed. Rat CSF Aβ42 was analyzed using AlphaLISA Amyloid Assay kits (Perkin-Elmer) according to the manufacturer's instructions. In vivo activity of the tested GSM compounds is expressed as the percentage of Aβ42 reduction in CSF after administration of the compound and is presented in the Table.

COc1cc(-c2noc3c2CCCC3NCc2ccc(F)cc2)ccc1-n1cnc(C)c1 (racemic)
IC50 (γ-secretase): 131 nM

COc1cc(-c2noc3c2CCCC3N(C)Cc2ccc(F)cc2)ccc1-n1cnc(C)c1 (racemic)
IC50 (γ-secretase): 319 nM

CNC1CCCc2c(-c3ccc(-n4cnc(C)c4)c(OC)c3)noc21 (racemic)
IC50 (γ-secretase): 12200 nM

COc1cc(-c2noc3c2CCCC3NC2CCCCC2)ccc1-n1cnc(C)c1 (racemic)
IC50 (γ-secretase): 311 nM

COc1cc(-c2noc3c2CCCC3NCC(F)(F)F)ccc1-n1cnc(C)c1 (racemic)
IC50 (γ-secretase): 464 nM

COc1cc(-c2noc3c2CCCC3N[C@H](C)c2ccc(F)cc2)ccc1-n1cnc(C)c1 (mixture of isomers)
IC50 (γ-secretase): 255 nM

COc1cc(-c2noc3c2CCCC3(O)Cc2cc(F)cc(F)c2)ccc1-n1cnc(C)c1 (racemic)
IC50 (γ-secretase): 150 nM

COc1cc(-c2noc3c2CCCC3Oc2cc(F)cc(F)c2)ccc1-n1cnc(C)c1 (racemic)
IC50 (γ-secretase): 205 nM

COc1cc(-c2noc3c2CCCC3OCc2cc(F)cc(F)c2)ccc1-n1cnc(C)c1 (racemic) [7-(3,5-Difluorobenzyloxy)-3-(3-methoxy-4-(4-methyl-1H-imidazol-1-yl)phenyl)-4,5,6,7-tetrahydrobenzo[d]isoxazole]
IC50 (γ-secretase): 514 nM

COc1cc(-c2noc3c2CCCC3(O)c2cc(F)cc(F)c2)ccc1-n1cnc(C)c1 (racemic) [7-(3,5-Difluorophenyl)-3-(3-methoxy-4-(4-methyl-1H-imidazol-1-yl)phenyl)-4,5,6,7-tetrahydrobenzo[d]isoxazol-7-ol]
% CSF Aβ42 Reduction After 30 mg/kg Dosing (Rat CSF Aβ42): 19%
IC50 (γ-secretase): 189 nM

COc1cc(-c2noc3c2CCCC3c2cc(F)cc(F)c2)ccc1-n1cnc(C)c1 (racemic) [7-(3,5-Difluorophenyl)-3-(3-methoxy-4-(4-methyl-1H-imidazol-1-yl)phenyl)-4,5,6,7-tetrahydrobenzo[d]isoxazole]
% CSF Aβ42 Reduction After 30 mg/kg Dosing (Rat CSF Aβ42): 0%
IC50 (γ-secretase): 113 nM

COc1cc(-c2noc3c2CCCC3Oc2ccc(F)cc2)ccc1-n1cnc(C)c1 (racemic) [7-(4-Fluorophenoxy)-3-(3-methoxy-4-(4-methyl-1H-imidazol-1-yl)phenyl)-4,5,6,7-tetrahydrobenzo[d]isoxazole]
IC50 (γ-secretase): 295 nM

COc1cc(-c2noc3c2CCCC3Nc2ccc(F)cc2)ccc1-n1cnc(C)c1 (single isomer, unassigned) [drawing 25, N-(4-Fluorophenyl)-3-(3-methoxy-4-(4-methyl-1H-imidazol-1-yl)phenyl)-4,5,6,7-tetrahydrobenzo[d]isoxazol-7-amine]
% CSF Aβ42 Reduction After 30 mg/kg Dosing (Rat CSF Aβ42): 58%
IC50 (γ-secretase): 39.4 nM

COc1cc(-c2noc3c2CCCC3Nc2ccc(F)cc2)ccc1-n1cnc(C)c1 (single isomer, unassigned) [drawing 26, N-(4-Fluorophenyl)-3-(3-methoxy-4-(4-methyl-1H-imidazol-1-yl)phenyl)-4,5,6,7-tetrahydrobenzo[d]isoxazol-7-amine]
% CSF Aβ42 Reduction After 30 mg/kg Dosing (Rat CSF Aβ42): 37%
IC50 (γ-secretase): 403 nM

COc1cc(-c2noc3c2CCCC3NCc2cc(F)cc(F)c2)ccc1-n1cnc(C)c1 (single isomer, unassigned) [drawing 33]
% CSF Aβ42 Reduction After 30 mg/kg Dosing (Rat CSF Aβ42): 7%
IC50 (γ-secretase): 644 nM

COc1cc(-c2noc3c2CCCC3NCc2cc(F)cc(F)c2)ccc1-n1cnc(C)c1 (single isomer, unassigned) [drawing 34]
% CSF Aβ42 Reduction After 30 mg/kg Dosing (Rat CSF Aβ42): 20%
IC50 (γ-secretase): 29.4 nM
